This is an account of results in patent publication US7368100B2, “Backbone-substituted bifunctional DOTA ligands, complexes and compositions thereof, and methods of using same” (The United States of America, represented by the Secretary, …, priority 2002, dated 2008).

The subject of data set [1] is human colon carcinoma (LS-174T) xenografts. The conditions noted are these: mouse, in vivo.
Experimental: The radioimmunoconjugates (RICs) were compared in vivo using athymic mice bearing human colon adenocarcinoma xenografts. Female athymic mice (nu/nu), obtained from Charles River Laboratories (Wilmington, Mass.) at 4-6 weeks of age, were injected subcutaneously on the flank with 2×10^6 LS-174T cells in 0.2 mL of RPMI-1640. At approximately 10-14 days, when the tumors measured between 0.4-0.6 cm in diameter, the mice received the ^177Lu-labeled HERCEPTIN. The mice were injected with each RIC (about 5 μCi of each) intravenously (i.v.) via the tail vein. Mice (n=5) were sacrificed by exsanguination at 24, 48, 72, 96 and 168 h.
Blood, tumor and the major organs were collected and wet-weighed, and the radioactivity was counted in a γ-counter (Minaxi-γ, Packard, Downers Grove, Ill.). The percent injected dose per gram (% ID/g) was determined for each tissue as well as the radiolocalization indices (% ID/g in tumor divided by the % ID/g in the normal tissue). The mean and average deviation for each tissue was also calculated.
Following injection of the radioimmunoconjugates (n=5), blood samples were collected at various time points via the tail vein in heparinized capillary tubes (10 μL). The blood was transferred to a tube, and the radioactivity was measured in a γ-counter. The percent injected dose per mL of blood was calculated for each of the samples.
If the radioactivity in the tissues is due to specific accumulation, then the tissue-to-blood ratio would increase as a function of time. If the radioactivity in the tissues is a result of that radioactivity present in the plasma compartment, then the tissue-to-blood ratio would remain constant with time.
Data set [2] relates to HER2 positive cells (N87). Briefly: Live-cell radioimmunoassay (immunoreactivity) of radiolabeled HERCEPTIN preparations. It counts as binding, human. To be noted: for HER2 + (percent binding): N87 cells, overnight 4° C., average of the serial dilutions; for HER2 − (percent binding): column HER2 −, not explained, text describes incubation with excess (10 μg) unlabeled HERCEPTIN
The method, then:
The human colon carcinoma (LS-174T) cell line was grown in supplemented Eagle's minimum essential medium as previously described (see Brechbiel et al., Inorg Chem., 25, 2772 (1986); and Lagunas-Solar et al., Appl. Radiat. Isot., 38, 129-137 (1987)). The human gastric carcinoma cell line (N87) was kindly provided by Dr. Raya Mandler, Metabolism Branch, NCI. The N87 cell line (Jurcic et al., Advances in Pharmacology, Vol. 33, (J. T. August, M. W. Anders, F. Murad, J. T. Coyle Eds.) pp 287-314, Academic Press, Inc., New York, (1995)), which expresses high levels of HER2, was maintained in RPMI 1640 (Quality Biologicals, Gaithersburg, Md.) medium, supplemented with 10% fetal bovine serum (FBS) (Gemini Bio-Products, Woodland, Calif.) and 0.01 mM non-essential amino acids (Quality Biologicals, Gaithersburg, Md.).
The immunoreactivity of the RIC was assessed in a live-cell radioimmunoassay (RIA) as detailed elsewhere (Garmestani et al., Nuci. Med. Biol., 29, 599-606 (2002)). HER2 positive cells (N87) were harvested, pelleted at 1,000×g (Allegra 6KR; Beckman Coulter, Palo Alto, Calif.) and resuspended in PBS (pH 7.2) containing 1% BSA and were added to 12×75 […] polypropylene tubes (1×10^6 cells in 100 μL). Serial dilutions of the radiolabeled HERCEPTIN preparations (about 200,000 cpm -12,500 cpm in 50 μL) were then added in duplicate and gently shaken. Following an overnight incubation at 4° C., the cells were washed once with 4 mL of 1% BSA in PBS and pelleted at 1,000×g for 5 min, and the supernatant was decanted. The pelleted cells were then counted in a γ-scintillation counter (Packard), and the percent binding was calculated for each dilution. The values presented in Table 1 are an average of the serial dilutions. To confirm the specific reactivity of the RIC, cells were incubated with about 200,000 cpm of the RIC along with an excess (10 μg) of unlabeled HERCEPTIN.

The test system of another data set is leukemia cell line. To be noted: directed against a leukemia cell line; Nikula et al. 1999; cited from earlier work.

For the substance 1B4M-DOTA (7), in data set [1], the “liver % ID/g, comparison among RIC” value is reported as “lowest liver % ID/g values throughout the entire study period” and the spleen-to-blood ratios result is recorded as “less than 1”. In addition, in data set [2], the “HER2 + (percent binding)” value was determined as 47.2% and the “HER2 − (percent binding)” value came to 6.7%.

Consider Bismuth-labeled HuM195, for which the cell killing ability result in the data set with leukemia cell line is “specific and potent cell killing ability”.

For CHX-DOTA (14), in data set [1], the “femur-to-blood ratios, course over time” value is reported as “higher overall than the other RIC” and the spleen-to-blood ratios entry is listed as “less than 1”. Moreover, in data set [2], the “HER2 + (percent binding)” value was 45.8% and the “HER2 − (percent binding)” value was determined as 4.3%.
